Measured values: US12173018B2, “Penicillin-binding protein inhibitors” (priority 2018, dated 2024)
Values after ≈ are worked out from the molar mass of the structure shown. Counter-ions that a name gives are not always drawn. Like-named read-outs stand apart in the source and are kept apart here.

How the values were obtained:
E. coli AG100A = assay: microbe, parasite or virus in culture; assay type: cell-based; conditions: Escherichia coli, read-out: MIC E. coli AG100A
In short: (§1)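 CLSI broth microdilution in cation-supplemented Mueller-Hinton broth; 2-fold compound dilutions inoculated at 5×10^5 CFU/mL from a 3-5 h log-phase culture. Plates incubated 16-20 hours at 37° C; MIC read visually as lowest concentration with no growth.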

E. coli 901C = assay: microbe, parasite or virus in culture; assay type: cell-based; conditions: Escherichia coli; hyper-permeable E. coli 901C, broth microdilution; read-out: MIC E. coli 901C
In short: as §1

K. pneumoniae UMM = assay: microbe, parasite or virus in culture; assay type: cell-based; conditions: Klebsiella pneumoniae; K. pneumoniae UMM producing SHV-5 and KPC-2; read-out: MIC K. pneumoniae UMM
In short: as §1

E. coli ATCC 25922 = assay: Broth microdilution MIC, E. coli ATCC 25922; assay type: cell-based; conditions: Escherichia coli
In short: as §1

[1] = test system: E. coli DH5α empty pLBII vector control strain; assay: microbe, parasite or virus in culture; assay type: cell-based, Escherichia coli; conditions: for MIC: Escherichia coli, read-out: Microbiological Activity (MIC in mg/L), E. coli DH5α/pLBII
Experimental: Briefly, cryo-preserved bacterial cultures of challenge strains are streaked for isolation on appropriate agar medium, in this case Mueller Hinton II agar. Following incubation to allow growth of the colonies, plates are sealed with parafilm and stored refrigerated for up to two weeks. For preparation of assay inoculum and to ensure low variability, at least 5 colonies are picked from the agar plates with an inoculating loop and aseptically transferred to a culture tube containing 3 mL of Mueller-Hinton Broth (supplemented with divalent cations to required levels based on Manufacturers' certification). The broth culture is grown for 3-5 hours at 37° C. with shaking at 200 rpm. Meanwhile, 2-fold serial dilutions of test compounds are conducted in a 96 well plate with a final volume of 75 μL per well at 2-fold the final desired concentration. After the dilution plates are set up the growing cultures are then diluted in a cuvette containing MH II broth and the optical density is measured at 600 nm. The Inoculum is diluted such that 75 μL of this culture in Mueller-Hinton Broth results in a starting bacterial concentration of 5×10^5 CFU/mL when added to the dilution plates. The plates are incubated for 16-20 hours at 37° C. The MIC values are read visually as the lowest concentration well with no bacterial growth.
To determine if test compounds were affected by CTX-M15, the most abundant extended spectrum […] in clinical settings worldwide, the inhibition of the growth of an engineered strain of Escherichia coli harboring CTX-M15 was tested. This strain was constructed by cloning the gene encoding CTX-M15 into the NdeI and BamHI restriction endonuclease sites of plasmid pLBII, placing the gene(s) under the control of the Lac promoter. The constructed expression plasmid for CTX-M15 was used to transform competent E. coli DH5α cells to make the engineered strain, including an empty pLBII vector control strain. The classic cell based broth microdilution MIC assay was employed as described above with the addition of control antibiotics, known to be degraded by β-lactamases (Ceftazidime, piperacillin and piperacillin+tazobactam).

E. coli AG100 = assay: Broth microdilution MIC, E. coli AG100 (wild-type parent); assay type: cell-based; conditions: Escherichia coli; wild-type parent E. coli AG100, broth microdilution; read-out: MIC E. coli AG100
In short: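 Broth microdilution in cation-supplemented Mueller-Hinton broth, 2-fold serial compound dilutions, inoculum 5×10^5 CFU/mL from 3-5 h log culture.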

[2] = test system: engineered strain of Escherichia coli harboring CTX-M15; assay: microbe, parasite or virus in culture; assay type: cell-based; conditions: for MIC: Escherichia coli, read-out: Microbiological Activity (MIC in mg/L), E. coli DH5α/pLBII-CTX-M15, engineered strain producing CTX-M15
E. coli PBP1b = E. coli PBP1b (Escherichia coli (strain K12), UniProt P02919); assay: Radioligand competition binding assay with 14C-labeled boronic acid probe, PBP1b
E. coli PBP1b, sequence (P02919 whole entry): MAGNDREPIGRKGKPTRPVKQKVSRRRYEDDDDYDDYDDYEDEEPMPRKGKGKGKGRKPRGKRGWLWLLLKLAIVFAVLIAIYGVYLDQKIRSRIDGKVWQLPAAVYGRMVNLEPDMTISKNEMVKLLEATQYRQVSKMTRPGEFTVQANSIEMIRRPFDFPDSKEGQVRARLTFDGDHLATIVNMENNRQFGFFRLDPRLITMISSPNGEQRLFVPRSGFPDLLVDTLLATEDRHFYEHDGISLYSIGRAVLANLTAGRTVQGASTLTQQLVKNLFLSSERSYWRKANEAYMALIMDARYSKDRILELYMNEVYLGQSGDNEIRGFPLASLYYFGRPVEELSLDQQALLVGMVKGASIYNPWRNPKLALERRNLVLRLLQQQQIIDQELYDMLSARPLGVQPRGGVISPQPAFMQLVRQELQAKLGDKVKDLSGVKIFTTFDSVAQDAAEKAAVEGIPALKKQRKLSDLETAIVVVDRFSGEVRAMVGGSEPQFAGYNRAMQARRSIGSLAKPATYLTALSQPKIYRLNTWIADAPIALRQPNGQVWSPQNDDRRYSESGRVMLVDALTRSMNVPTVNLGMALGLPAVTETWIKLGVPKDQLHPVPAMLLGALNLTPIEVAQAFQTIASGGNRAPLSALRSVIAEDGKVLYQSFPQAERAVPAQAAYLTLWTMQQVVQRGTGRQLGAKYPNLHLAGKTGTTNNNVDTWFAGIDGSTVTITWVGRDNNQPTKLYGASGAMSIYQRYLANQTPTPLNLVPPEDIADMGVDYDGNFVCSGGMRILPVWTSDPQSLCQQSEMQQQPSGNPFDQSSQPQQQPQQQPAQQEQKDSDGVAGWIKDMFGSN

E. coli PBP3 = E. coli PBP3 (Escherichia coli (strain K12), UniProt P0AD68); assay: E. coli PBP3 Bocillin-FL fluorescence polarization competition binding assay
E. coli PBP3, sequence (P0AD68 whole entry): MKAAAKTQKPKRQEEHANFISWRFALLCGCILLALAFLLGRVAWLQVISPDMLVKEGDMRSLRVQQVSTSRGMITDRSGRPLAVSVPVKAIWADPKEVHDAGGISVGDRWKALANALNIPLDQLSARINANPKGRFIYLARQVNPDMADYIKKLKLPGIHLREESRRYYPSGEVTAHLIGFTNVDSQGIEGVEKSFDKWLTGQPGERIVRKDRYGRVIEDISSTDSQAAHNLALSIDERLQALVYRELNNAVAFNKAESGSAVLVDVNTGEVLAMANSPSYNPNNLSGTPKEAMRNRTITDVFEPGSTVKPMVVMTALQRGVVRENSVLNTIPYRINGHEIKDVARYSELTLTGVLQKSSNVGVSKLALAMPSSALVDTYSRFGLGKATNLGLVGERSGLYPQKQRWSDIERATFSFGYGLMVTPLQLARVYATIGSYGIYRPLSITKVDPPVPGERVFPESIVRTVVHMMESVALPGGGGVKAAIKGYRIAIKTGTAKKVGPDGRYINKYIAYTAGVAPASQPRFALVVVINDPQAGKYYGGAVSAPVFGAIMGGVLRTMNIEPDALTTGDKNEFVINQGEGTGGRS
In short: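 This was a fluorescence polarization competition with fluorescent penicillin Bocillin-FL (0.1 μM final), read at 490/520 nm for 60 min immediately after its addition. The buffer was Hepes pH 8.0 with 300 mM NaCl and 5% glycerol, containing 1.5 μM PBP and test inhibitor up to 1000 μM. Potency is expressed as EC50 for reducing probe binding.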

[3] = ATCC25922, read-out: MIC E. coli 25922

SMILES	MIC [1] [mg/L]	MIC [2] [mg/L]	EC50 (E. coli PBP3) [µM]	other results
CCN1CCN(C(=O)N2C[C@@H](O)C[C@@H]2C(=O)N[C@H]2Cc3cccc(C(=O)O)c3OB2O)C(=O)C1=O [Example 9, (R)-3-((2R,4S)-1-(4-ethyl-2,3-dioxopiperazine-1-carbonyl)-4-hydroxypyrrolidine-2-carboxamido)-2-hydroxy-3,4-dihydro-2H-benzo[e][1,2]oxaborinine-8-carboxylic acid]	> 512	> 512	–	MIC (E. coli AG100A): > 128 µg/mL; MIC (E. coli 901C): > 128 µg/mL; MIC (K. pneumoniae UMM): > 128 µg/mL; MIC (E. coli ATCC 25922; [3]): > 128 µg/mL; MIC (E. coli AG100): > 128 µg/mL
CCN1CCN(C(=O)NC(C(=O)N[C@H]2Cc3cccc(C(=O)O)c3OB2O)c2nsc(N)n2)C(=O)C1=O (stereo partly drawn) [Example 10, (3R)-3-(2-(5-amino-1,2,4-thiadiazol-3-yl)-2-(4-ethyl-2,3-dioxopiperazine-1-carboxamido)acetamido)-2-hydroxy-3,4-dihydro-2H-benzo[e][1,2]oxaborinine-8-carboxylic acid]	8 to 16 (≈ 15.1 to 30.1 µM)	8 to 16 (≈ 15.1 to 30.1 µM)	–	MIC (E. coli AG100A): 2 to 4 µg/mL; MIC (E. coli 901C): 0.5 to 1 µg/mL; MIC (K. pneumoniae UMM): 8 to 16 µg/mL; MIC (E. coli ATCC 25922; [3]): 8 to 16 µg/mL; MIC (E. coli AG100): 32 to 64 µg/mL
CCN1CCN(C(=O)N[C@H](CN)C(=O)N[C@H]2Cc3cccc(C(=O)O)c3OB2O)C(=O)C1=O [Example 11, (R)-3-((R)-3-amino-2-(4-ethyl-2,3-dioxopiperazine-1-carboxamido)propanamido)-2-hydroxy-3,4-dihydro-2H-benzo[e][1,2]oxaborinine-8-carboxylic acid, trifluoroacetic acid salt]	128 to 256	128 to 256	–	EC50 (E. coli PBP1b): < 10 µM
Nc1nc(C(NC(=O)N2CCN(CCF)C(=O)C2=O)C(=O)N[C@H]2Cc3cccc(C(=O)O)c3OB2O)c(Cl)s1 (stereo partly drawn) [Example 13, (3R)-3-(2-(2-amino-5-chlorothiazol-4-yl)-2-(4-(2-fluoroethyl)-2,3-dioxopiperazine-1-carboxamido)acetamido)-2-hydroxy-3,4-dihydro-2H-benzo[e][1,2]oxaborinine-8-carboxylic acid]	8 to 16 (≈ 13.7 to 27.5 µM)	8 to 16 (≈ 13.7 to 27.5 µM)	30 to 500	MIC (E. coli AG100A): 2 to 4 µg/mL; MIC (E. coli 901C): < 0.25 µg/mL; MIC (K. pneumoniae UMM): 32 to 64 µg/mL; MIC (E. coli ATCC 25922; ATCC25922, E. coli ATCC 25922, broth microdilution, read-out: MIC E. coli 25922): 32 to 64 µg/mL; MIC (E. coli AG100): 32 to 64 µg/mL
CCN1CCN(C(=O)NCC(CN)(CO)C(=O)N[C@H]2Cc3cccc(C(=O)O)c3OB2O)C(=O)C1=O (stereo partly drawn) [Example 15, (3R)-3-(3-amino-2-((4-ethyl-2,3-dioxopiperazine-1-carboxamido)methyl)-2-(hydroxymethyl)propanamido)-2-hydroxy-3,4-dihydro-2H-benzo[e][1,2]oxaborinine-8-carboxylic acid, trifluoroacetic acid salt]	> 512	> 512	–	–
CCN1CCN(C(=O)NC(C(=O)N[C@H]2Cc3cccc(C(=O)O)c3OB2O)c2csc(N)n2)CC1=O (stereo partly drawn) [Example 18, (3R)-3-(2-(2-aminothiazol-4-yl)-2-(4-ethyl-3-oxopiperazine-1-carboxamido)acetamido)-2-hydroxy-3,4-dihydro-2H-benzo[e][1,2]oxaborinine-8-carboxylic acid]	128 to 256 (≈ 248 to 496 µM)	128 to 256 (≈ 248 to 496 µM)	30 to 500	–
CCN1CCN(C(=O)C[C@H](N)C(=O)N[C@H]2Cc3cccc(C(=O)O)c3OB2O)C(=O)C1=O [Example 19, (R)-3-((S)-2-amino-4-(4-ethyl-2,3-dioxopiperazin-1-yl)-4-oxobutanamido)-2-hydroxy-3,4-dihydro-2H-benzo[e][1,2]oxaborinine-8-carboxylic acid]	> 512	> 512	–	–
CCN1CCN(C(=O)NC(C(=O)N[C@H]2Cc3cccc(C(=O)O)c3OB2O)c2ccc(OC)c(OC)c2)C(=O)C1=O (stereo partly drawn) [Example 21, (3R)-3-(2-(3,4-dimethoxyphenyl)-2-(4-ethyl-2,3-dioxopiperazine-1-carboxamido)acetamido)-2-hydroxy-3,4-dihydro-2H-benzo[e][1,2]oxaborinine-8-carboxylic acid]	128 to 256 (≈ 225 to 450 µM)	128 to 256 (≈ 225 to 450 µM)	30 to 500	–
CCN1CCN(C(=O)N[C@H](CC(=O)O)C(=O)N[C@H]2Cc3cccc(C(=O)O)c3OB2O)C(=O)C1=O [Example 23, (R)-3-((R)-3-carboxy-2-(4-ethyl-2,3-dioxopiperazine-1-carboxamido)propanamido)-2-hydroxy-3,4-dihydro-2H-benzo[e][1,2]oxaborinine-8-carboxylic acid]	> 512	> 512	> 500	EC50 (E. coli PBP1b): > 100 µM
Nc1nc(C(NC(=O)c2cccc(O)c2O)C(=O)N[C@H]2Cc3cccc(C(=O)O)c3OB2O)cs1 (stereo partly drawn) [Example 25, (3R)-3-(2-(2-aminothiazol-4-yl)-2-(2,3-dihydroxybenzamido)acetamido)-2-hydroxy-3,4-dihydro-2H-benzo[e][1,2]oxaborinine-8-carboxylic acid]	> 512	> 512	–	EC50 (E. coli PBP1b): < 10 µM
CCN1CCN(C(=O)N2C[C@H](O)C[C@@H]2C(=O)N[C@H]2Cc3cccc(C(=O)O)c3OB2O)C(=O)C1=O [Example 28, (R)-3-((2R,4R)-1-(4-ethyl-2,3-dioxopiperazine-1-carbonyl)-4-hydroxypyrrolidine-2-carboxamido)-2-hydroxy-3,4-dihydro-2H-benzo[e][1,2]oxaborinine-8-carboxylic acid]	> 512	> 512	–	–
CCN1CCN(C(=O)NC(C(=O)N[C@H]2Cc3cccc(C(=O)O)c3OB2O)c2cc(OC)c(OC)c(OC)c2)C(=O)C1=O (stereo partly drawn) [Example 30, (3R)-3-(2-(4-ethyl-2,3-dioxopiperazine-1-carboxamido)-2-(3,4,5-trimethoxyphenyl)acetamido)-2-hydroxy-3,4-dihydro-2H-benzo[e][1,2]oxaborinine-8-carboxylic acid]	> 512	> 512	–	–
CCN1CCN(C(=O)C[C@@H](N)C(=O)N[C@H]2Cc3cccc(C(=O)O)c3OB2O)C(=O)C1=O [Example 32, (R)-3-((R)-2-amino-4-(4-ethyl-2,3-dioxopiperazin-1-yl)-4-oxobutanamido)-2-hydroxy-3,4-dihydro-2H-benzo[e][1,2]oxaborinine-8-carboxylic acid]	> 512	> 512	–	–
CCN1CCN(C(=O)N[C@H](C(=O)N[C@H]2Cc3cccc(C(=O)O)c3OB2O)c2ccc(O)c(O)c2)C(=O)C1=O [Example 38, (R)-3-((S)-2-(3,4-dihydroxyphenyl)-2-(4-ethyl-2,3-dioxopiperazine-1-carboxamido)acetamido)-2-hydroxy-3,4-dihydro-2H-benzo[e][1,2]oxaborinine-8-carboxylic acid]	2 to 4 (≈ 3.7 to 7.4 µM)	2 to 4 (≈ 3.7 to 7.4 µM)	30 to 500	–
CCN1CCN(C(=O)N[C@@H](C(=O)N[C@@H]2C(=O)N3[C@@H]2SC(C)(C)[C@@H]3C(=O)O)c2ccccc2)C(=O)C1=O [piperacillin, reference compound]	–	–	–	Microbiological Activity (MIC in mg/L), E. coli DH5α/pLBII [1]: F (F represents an MIC<1 μg/mL); MIC in CTX-M15 producer compared with parent strain with empty pLBII plasmid ([2]; engineered E. coli DH5α with CTX-M15 vs empty vector control): weaker MICs in the CTX-M15 producer; Microbiological Activity (MIC in mg/L), E. coli DH5α/pLBII-CTX-M15 ([2]; engineered strain producing CTX-M15): B (B represents an MIC of 128 to 256 μg/mL)
